According to patent publication US6579881B2 (Eisai Co., Ltd., priority 1997, dated 2003):
Read-outs that look alike come from different tables or passages of the source.

Experiments:
[1] = target: α1 adrenalin receptor; assay: Binding test on [3H] prazosin (α1 adrenalin receptor); design: species or system rat; details: [3H] prazosin about 0.2 nM, receptor fraction of rat cerebral cortex
[2] = target: T1, serotonin 1A receptor (Rattus norvegicus, UniProt P19327); assay: Binding test on [3H] 8-hydroxy-dipropylaminotetralin (serotonin 1A receptor); details: [3H] 8-OH-DPAT 0.5 nM, receptor fraction of rat hippocampus; read-out: 5HT1a
T1 construct: To the receptor fraction of the hippocampus were added a test compound and 0.5 nM of [^3H]; 8-hydroxy-dipropylaminotetralin; from tissue; host or cells: SD rat hippocampus, membrane (receptor) fraction
T1 sequence (P19327 1-422): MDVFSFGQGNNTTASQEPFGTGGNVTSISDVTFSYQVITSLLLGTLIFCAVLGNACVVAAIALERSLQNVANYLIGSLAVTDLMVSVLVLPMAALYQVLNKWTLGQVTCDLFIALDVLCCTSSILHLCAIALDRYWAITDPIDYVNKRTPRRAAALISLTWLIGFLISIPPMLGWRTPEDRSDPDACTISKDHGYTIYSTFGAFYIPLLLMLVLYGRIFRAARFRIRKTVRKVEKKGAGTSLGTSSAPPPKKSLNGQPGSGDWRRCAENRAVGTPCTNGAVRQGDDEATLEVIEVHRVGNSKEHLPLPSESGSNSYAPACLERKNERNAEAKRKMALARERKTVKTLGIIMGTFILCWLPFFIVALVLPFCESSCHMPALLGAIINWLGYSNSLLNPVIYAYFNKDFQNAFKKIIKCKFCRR

[3] = target: serotonin 2 receptor (Rattus norvegicus, UniProt P14842); assay: Binding test on [3H] ketanserin (serotonin 2 receptor); details: [3H] ketanserin 0.3 nM, receptor fraction of rat cerebral cortex; read-out: 5HT2
[4] = test system: Straub's tail reaction (hyper-muscle tone in the tail); assay: Morphine induced Straub's tail phenomenon in mice; assay type: in vivo; details: Mus musculus, male ddY mice, 15 min before morphine hydrochloride 12.5 mg/kg s.c., statistically significant (p<0.05)
[5] = ip, i.p., read-out: minimal effective dose i.p.
[6] = po, p.o., read-out: minimal effective dose p.o.

serotonin 2 receptor, sequence (P14842 whole entry): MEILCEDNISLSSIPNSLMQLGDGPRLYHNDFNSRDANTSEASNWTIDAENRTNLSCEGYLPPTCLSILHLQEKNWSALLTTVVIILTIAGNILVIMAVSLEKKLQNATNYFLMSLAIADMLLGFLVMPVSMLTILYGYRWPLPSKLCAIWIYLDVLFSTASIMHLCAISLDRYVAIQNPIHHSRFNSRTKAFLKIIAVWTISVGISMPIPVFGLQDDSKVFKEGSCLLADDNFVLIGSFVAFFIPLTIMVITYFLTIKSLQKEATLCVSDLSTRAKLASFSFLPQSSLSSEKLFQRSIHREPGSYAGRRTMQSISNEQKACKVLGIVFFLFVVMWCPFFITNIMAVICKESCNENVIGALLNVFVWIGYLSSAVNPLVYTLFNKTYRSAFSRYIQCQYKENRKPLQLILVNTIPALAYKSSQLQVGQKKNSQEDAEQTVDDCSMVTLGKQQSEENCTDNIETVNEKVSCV

Row | SMILES | Ki [1] | Ki [2] | Ki [3] | melting point | minimal effective dose [4, 5] | minimal effective dose [4, 6]
1 | COc1ccc2c(c1)N(C1CCN(CCc3ccc(F)cc3)CC1)CC2 [Example 106, 1-[1-(4-fluorophenethyl)piperidin-4-yl]-6-methoxyindoline] | 71.3 nM | 0.7 nM | 6.4 nM |  | 10 mg/kg | > 30 mg/kg
2 | CC(C)NC(=O)Cc1ccc2c(c1)N(C1CCN(CCc3ccc(F)cc3)CC1)CC2 [Example 151, 1-[1-(4-fluorophenethyl)piperidin-4-yl]-6-(isopropylcarbamoylmethyl)indoline] | 292 nM | 8.84 nM | 0.57 nM |  |  | 3 mg/kg
3 | CC(=O)NCCc1ccc2c(c1)N(C1CCN(CCc3ccc(F)cc3)CC1)CC2 [Example 166, 1-[1-(4-fluorophenethyl)piperidin-4-yl]-6-acetamidoethylindoline] | 194 nM | 0.79 nM | 17.1 nM |  | 3 mg/kg | 3 mg/kg
4 | CNCc1ccc2c(c1)N(C1CCN(CCc3ccc(F)cc3)CC1)CC2 [Example 162, 1-[1-(4-fluorophenethyl)piperidin-4-yl]-6-N-methylaminomethylindoline] | 223 nM | 0.98 nM | 27.1 nM |  | 1 mg/kg | > 10 mg/kg
5 | CC(=O)NCc1ccc2c(c1)N(C1CCN(CCc3ccc(F)cc3)CC1)CC2 [Example 133, 1-[1-(4-fluorophenethyl)piperidin-4-yl]-6-acetamidomethylindoline] | 262 nM | 3.7 nM | 0.05 nM |  | 0.3 mg/kg | ≤ 0.3 mg/kg
6 | CCNC(=O)Cc1ccc2c(c1)N(C1CCN(CCc3ccc(F)cc3)CC1)CC2 [Example 149, 1-[1-(4-fluorophenethyl)piperidin-4-yl]-6-(ethylcarbamoylmethyl)indoline] | 304 nM | 7.44 nM | 0.5 nM |  | 1 mg/kg | ≤ 3 mg/kg
7 | NS(=O)(=O)c1ccc(CCN2CCC(N3CCc4ccccc43)CC2)cc1 [Example 42, 1-[1-(4-sulfamoylphenethyl)piperidin-4-yl]indoline] | 230 nM | 35.8 nM | 5.7 nM |  | ≤ 10 mg/kg | 10 mg/kg
8 | COc1ccc(Cc2ccc3c(c2)N(C2CCN(CCc4ccc(F)cc4)CC2)CC3)cn1 [Example 189, 1-[1-(4-fluorophenethyl)piperidin-4-yl]-6-[1-(2-methoxypyridin-5-yl)methyl]indoline] | 442 nM | 7.72 nM | 2.02 nM |  |  | 10 mg/kg
9 | COc1ccc2c(c1)CCCC2C1CCN(CCc2ccc(F)cc2)CC1 (stereo not shown) [Example 277, 1-[2-(4-fluorophenyl)ethyl]-4-(6-methoxy-1,2,3,4-tetrahydronaphthalen-1-yl)piperidine] | 354 nM | 22.8 nM | 3.9 nM |  | < 1 mg/kg | 30 mg/kg

More lines, in order of falling Ki [1], values ahead:

Row | Ki [1] | Ki [2] | Ki [3] | melting point | SMILES | minimal effective dose [4, 5] | minimal effective dose [4, 6]
10 | 188 nM | 15.1 nM | 3.06 nM |  | COc1ncccc1C(O)c1ccc2c(c1)N(C1CCN(CCc3ccc(F)cc3)CC1)CC2 (stereo not shown) [Example 184, 1-[1-(4-fluorophenethyl)piperidin-4-yl]-6-[1-hydroxy-1-(2-methoxypyridin-3-yl)methyl]indoline] |  | 3 mg/kg
11 | 157 nM | 1.31 nM | 0.77 nM |  | NC(=O)Cc1ccc2c(c1)N(C1CCN(CCc3ccc(F)cc3)CC1)CC2 [Example 147, 1-[1-(4-fluorophenethyl)piperidin-4-yl]-6-carbamoylmethylindoline] | ≤ 0.3 mg/kg | ≤ 3 mg/kg
12 | 126 nM | 0.65 nM | 6.68 nM |  | CC(O)c1ccc2c(c1)N(C1CCN(CCc3ccc(F)cc3)CC1)CC2 (stereo not shown) [Example 137, 1-[1-(4-fluorophenethyl)piperidin-4-yl]-6-(1-hydroxyethyl)indoline] |  | 1 mg/kg
13 | 113 nM | 24 nM | 12.2 nM |  | OCc1cccc(CCN2CCC(N3CCc4ccccc43)CC2)c1 [Example 22, 1-[1-(3-hydroxymethylphenethyl)piperidin-4-yl]indoline] |  | > 10 mg/kg
14 | 77.7 nM | 3.9 nM | 15.8 nM |  | Fc1ccc(CCN2CCC(N3CCc4ccc(F)cc43)CC2)cc1 [Example 103, 1-[1-(4-fluorophenethyl)piperidin-4-yl]-6-fluoroindoline] | ≤ 10 mg/kg | > 30 mg/kg
15 | 76.5 nM | 3 nM | 11.6 nM |  | Fc1ccc(CCN2CCC(N3CCc4ccccc43)CC2)cc1 [Example 9, 1-[1-(4-fluorophenethyl)piperidin-4-yl]indoline] | 10 mg/kg | 
16 | 75.3 nM | 2.9 nM | 6.8 nM |  | Fc1ccc(CCN2CCC(C3CCc4ccccc43)CC2)cc1 (stereo not shown) [Example 248, 1-[1-(4-fluorophenethyl)piperidin-4-yl]indan] | ≤ 10 mg/kg | 30 mg/kg
17 | 72.6 nM | 3.84 nM | 4.06 nM |  | CC(=O)N1CCC(Cc2ccc3c(c2)N(C2CCN(CCc4ccc(F)cc4)CC2)CC3)CC1 [Example 168, 1-[1-(4-fluorophenethyl)piperidin-4-yl]-6-[(1-acetylpiperidin-4-yl)methyl]indoline] |  | 10 mg/kg
18 | 70.1 nM | 4.28 nM | 2.91 nM |  | CC(c1ccc2c(c1)N(C1CCN(CCc3ccc(F)cc3)CC1)CC2)c1ccccn1 (stereo not shown) [Example 182, 1-[1-(4-fluorophenethyl)piperidin-4-yl]-6-[1-(2-pyridyl)ethyl]indoline] |  | 10 mg/kg
19 | 58.2 nM | 0.5 nM | 22.8 nM |  | OCCOc1ccc2c(c1)N(C1CCN(CCc3ccc(F)cc3)CC1)CC2 [Example 121, 1-[1-(4-fluorophenethyl)piperidin-4-yl]-6-hydroxyethoxyindoline] |  | 10 mg/kg
20 | 39 nM | 4.5 nM | 14.9 nM |  | CC(=O)NCc1ccc(CCN2CCC(N3CCc4ccccc43)CC2)cc1 [Example 36, 1-[1-(4-acetamidomethylphenethyl)piperidin-4-yl]indoline] | 1 mg/kg | ≤ 3 mg/kg
21 | 26.8 nM | 0.44 nM | 1.39 nM | 127 to 128 °C | CC(=O)NCc1ccc2ccn(C3CCN(CCc4ccc(F)cc4)CC3)c2c1 [Example 285, 1-[1-(4-fluorophenethyl)piperidin-4-yl]-6-acetamidomethylindole] | 1 mg/kg | 1 mg/kg
